Results: patent publication US11186589B2, “Cyanoindoline derivatives as NIK inhibitors” (Janssen Pharmaceutica NV, priority 2016, dated 2021)

What was measured:
[1] = biological target: NIK/MAP3K14 (Homo sapiens (Human), UniProt Q99558); assay: Inhibition of auto-phosphorylation of recombinant human NF-kappaB-inducing kinase (NIK/MAP3K14) activity (AlphaScreen); format: biochemical; settings: averaged values over all measurements on all batches, 25 microM ATP
Summary of the method: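 GST-tagged NIK (0.2 nM) auto-phosphorylation was run with 25 microM ATP in pH 7.5 Tris buffer with MgCl2 for 1 h at 25 °C. It was detected by AlphaScreen with anti-phospho-IKK Ser176/180 antibody. IC50 came from sigmoidal fits of blank-subtracted % inhibition versus log concentration.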

[2] = test system: P-IKKα levels in L363 cells; assay: Effect of compounds on P-IKKα levels in L363 (NIK translocated multiple myeloma) cells; format: cell-based, human; settings: Homo sapiens, L-363, 2 h, 2 hr treatment, averaged values, read-out: Inhibition of pIKKα_L-363 (IC50 (nM))
Description: Effect of Compounds on P-IKKα Levels in L363 (NIK Translocated Multiple Myeloma) Cells
All compounds tested were dissolved in DMSO and further dilutions were made in culture medium. Final DMSO concentration was 1% (v/v) in cell assays. The human L363 cells (ATCC) were cultured in RPMI 1640 medium supplemented with GlutaMax and 10% fetal calf serum (PAA). Cells were routinely maintained at densities of 0.2×10^6 cells per ml—1×10^6 cells per ml at 37° C. in a humidified 5% CO2 atmosphere. Cells were passaged twice a week splitting back to obtain the low density. Cells were seeded in 96 well plates (Nunc 167008) at 2×10^6 per ml media in a volume of 75 μl per well plus 25 μl 1 μg/ml recombinant human B-cell activating factor (BAFF/BLyS/TNFSF13B). Seeded cells were incubated at 37° C. in a humidified 5% CO2 atmosphere for 24 hr. Drugs and/or solvents were added (20 μl) to a final volume of 120 μl. Following 2 hr treatment plates were removed from the incubator and cell lysis was achieved by the addition of 30 μl 5× lysis buffer followed by shaking on a plate shaker at 4° C. for 10 min. At the end of this incubation lysed cells were centrifuged at 800×g for 20 min at 4° C. and the lysate was assessed for P-IKKα levels by sandwich immuno-assay carried out in anti-rabbit antibody coated Mesoscale plates. Within an experiment, the results for each treatment were the mean of 2 replicate wells. For initial screening purposes, compounds were tested using an 8 point dilution curve (serial 1:3 dilutions). For each experiment, controls (containing MG132 and BAFF but no test drug) and a blank incubation (containing MG132 and BAFF and 10 μM ADS125117, a test concentration known to give full inhibition) were run in parallel. The blank incubation value was subtracted from all control and sample values. To determine the IC50 a sigmoidal curve was fitted to the plot of % inhibition of control P-IKKα levels versus Log10 compound concentration.

[3] = test system: JJN-3 cells; assay: Antiproliferative activity on JJN-3 (NIK translocated) multiple myeloma cells (CellTiter-Glo); format: cell-based, human; settings: Homo sapiens, JJN-3, 96 h, JJN-3 (NIK translocated) cells, 96 hr treatment, averaged values, read-out: JJN-3 Proliferation inhibition (IC50 (nM))
Summary of the method: (§1)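 Cells in RPMI 1640 with 2 mM L-glutamine and 10% FCS, treated 96 hr at 37 °C with 9-point 1:3 dilution series, 0.3% DMSO final. Viability read by CellTiter-Glo luminescence, mean of 2 wells. Time-zero blank subtracted; growth expressed as % of untreated control.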

[4] = test system: KMS12-BM cells; assay: Antiproliferative activity on KMS12-BM (NIK WT) multiple myeloma cells (CellTiter-Glo); format: cell-based, human; settings: Homo sapiens, KMS-12-BM, 96 h, 96 hr treatment, averaged values, read-out: KMS-12 Proliferation inhibition (IC50 (nM))
Summary of the method: as §1

Chain of NIK/MAP3K14 (Q99558 whole entry): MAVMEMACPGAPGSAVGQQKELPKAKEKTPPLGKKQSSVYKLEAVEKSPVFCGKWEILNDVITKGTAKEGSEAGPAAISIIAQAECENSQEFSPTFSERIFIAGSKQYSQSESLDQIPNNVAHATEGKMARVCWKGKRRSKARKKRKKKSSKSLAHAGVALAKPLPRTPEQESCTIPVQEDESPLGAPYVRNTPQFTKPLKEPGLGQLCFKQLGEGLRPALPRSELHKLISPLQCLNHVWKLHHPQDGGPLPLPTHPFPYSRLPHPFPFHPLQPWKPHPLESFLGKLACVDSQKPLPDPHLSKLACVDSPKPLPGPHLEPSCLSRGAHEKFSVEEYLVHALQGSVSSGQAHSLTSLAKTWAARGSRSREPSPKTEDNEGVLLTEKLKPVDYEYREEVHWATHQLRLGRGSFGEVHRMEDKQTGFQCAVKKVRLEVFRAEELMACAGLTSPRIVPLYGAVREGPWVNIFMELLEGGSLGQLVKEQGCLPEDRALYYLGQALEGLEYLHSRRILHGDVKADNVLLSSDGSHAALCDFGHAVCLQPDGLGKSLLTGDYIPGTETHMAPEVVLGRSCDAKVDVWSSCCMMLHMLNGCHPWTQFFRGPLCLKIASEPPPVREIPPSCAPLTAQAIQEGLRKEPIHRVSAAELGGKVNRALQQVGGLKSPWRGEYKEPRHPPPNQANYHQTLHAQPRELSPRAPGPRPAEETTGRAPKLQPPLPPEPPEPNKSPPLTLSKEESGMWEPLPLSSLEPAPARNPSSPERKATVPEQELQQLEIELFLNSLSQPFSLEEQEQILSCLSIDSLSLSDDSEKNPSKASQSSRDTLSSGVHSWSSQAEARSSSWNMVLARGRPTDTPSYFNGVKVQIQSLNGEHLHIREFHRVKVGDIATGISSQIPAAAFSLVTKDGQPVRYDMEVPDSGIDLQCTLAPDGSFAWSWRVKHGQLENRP

Structure (SMILES)	IC50 [1] [nM]	IC50 [2] [nM]	IC50 [3] [nM]	IC50 [4] [nM]
COc1nc2c(cc1Nc1nccc(-c3cc(C#N)c4c(c3)[C@@](C)(CO)CN4)n1)COCC2 [Compound 25]	1.7	10	174	> 10000
CC1(C)CCn2ncc(Nc3nccc(-c4cc(C#N)c5c(c4)[C@@](C)(CO)CN5)n3)c2O1 [Compound 25b]	8.1	7	3020	> 10000
C[C@]1(CO)CNc2c(C#N)cc(-c3ccnc(Nc4cnn5c4C(=O)N(Cc4ccccc4)CC5)n3)cc21 [Compound 26b]	9.5	25	1700	~9550
CC(C)CN1CCn2ncc(Nc3nccc(-c4cc(C#N)c5c(c4)[C@@](C)(CO)CN5)n3)c2C1=O [Compound 27b]	4.47	13	1580	> 10000
Cc1nc2c(cc1Nc1nccc(-c3cc(C#N)c4c(c3)[C@@](C)(CO)CN4)n1)COCC2 [Compound 28]	1.1	14	851	> 10000
CC(C)N1CCCn2ncc(Nc3nccc(-c4cc(C#N)c5c(c4)[C@@](C)(CO)CN5)n3)c2C1=O [Compound 28b]	17	251	3390	> 10000
CN1CCc2ncc(Nc3nccc(-c4cc(C#N)c5c(c4)[C@@](C)(CO)CN5)n3)cc2C1 [Compound 29]	3.4	16	~27	51
CN1CCc2cc(Nc3nccc(-c4cc(C#N)c5c(c4)[C@@](C)(CO)CN5)n3)ccc2C1 [Compound 30]	0.8	2	4	10
CN1CCc2ccc(Nc3nccc(-c4cc(C#N)c5c(c4)[C@@](C)(CO)CN5)n3)cc2C1 [Compound 31]	1.4	2	4	~31
COc1nc2c(cc1Nc1nccc(-c3cc(C#N)c4c(c3)[C@@](C)(CO)CN4)n1)CN(C)CC2 [Compound 32]	1.7	10	195	525
COCCCc1nc2c(cc1Nc1nccc(-c3cc(C#N)c4c(c3)[C@@](C)(CO)CN4)n1)COCC2 [Compound 33]	8.1	17	776	> 10000
C[C@]1(CO)CNc2c(C#N)cc(-c3ccnc(Nc4cc5c(nc4OCC4CC4)CCOC5)n3)cc21 [Compound 34]	10.5	23	1740	> 10000
CC1(CO)CNc2c(C#N)cc(-c3ccnc(Nc4cc(Cl)cc5c4OCC5)n3)cc21 (stereo not shown) [Compound 41]	11.8	3	138	> 10000
CNC(=O)c1cc(Nc2nccc(-c3cc(C#N)c4c(c3)[C@@](C)(CO)CN4)n2)c(=O)n2c1CCC2 [Compound 44]	4.5	35	> 10000	> 10000
CC(C)Oc1nc2c(cc1Nc1nccc(-c3cc(C#N)c4c(c3)[C@@](C)(CO)CN4)n1)COCC2 [Compound 46]	13	20	778	> 10000
Cn1c2c(cc(Nc3nccc(-c4cc(C#N)c5c(c4)[C@@](C)(CO)CN5)n3)c1=O)COCC2 [Compound 48]	1.6	31	~2340	> 10000
CC(C)Oc1nc2c(cc1Nc1nccc(-c3cc(C#N)c4c(c3)[C@@](C)(CO)CN4)n1)CN(C)CC2 [Compound 50]	3.4	56	240	3980
C[C@]1(CO)CNc2c(C#N)cc(-c3ccnc(Nc4cnc5c(c4)CN(C4CC4)CC5)n3)cc21 [Compound 51]	3.4	4	52	~174
COc1nc2c(cc1Nc1nccc(-c3cc(C#N)c4c(c3)[C@@](C)(CO)CN4)n1)CN(C1CC1)CC2 [Compound 52]	7.8	20	200	> 10000
COc1nc2c(cc1Nc1nccc(-c3cc(C#N)c4c(c3)C(C)(CC(F)F)CN4)n1)CN(C)CC2 (stereo not shown) [Compound 56]	12	76	3240	~5750
C[C@]1(CO)CNc2c(C#N)cc(-c3ccnc(Nc4cc5c(n(CCC6CC6)c4=O)CCOC5)n3)cc21 [Compound 58]	35.5	204	2400	> 10000
CCc1c(Nc2nccc(-c3cc(C#N)c4c(c3)[C@@](C)(CO)CN4)n2)ccc2c1CCN(C(C)CO)C2 (stereo partly shown) [Compound 60]	4.8	17	100	603
